How the values were obtained:
Format in all cases: in vivo, C57BL/6J mice
[1] = tested on: NASH mice; assay: Liver TG content in NASH mice; details: mean±SD, Vehicle 58.8±26.9, no significant difference
Method: Liver total lipid-extracts were obtained from right lobes by Folch's method (Folch J. et al, J. Biol. Chem. 1957; 226 (1): 497). The livers were homogenized in chloroform-methanol (2:1, v/v) and incubated overnight at room temperature. After washing with chloroform-methanol-water (8:4:3, v/v/v), the extracts were evaporated to dryness, and dissolved in isopropanol. Liver TG levels were measured by Triglyceride E-test (Wako Pure Chemical Industries). Extracts were diluted 2- to 4-fold in isopropanol when the TG contents exceed the limit of detection.

[2] = tested on: NASH mice; assay: Liver weight and liver-to-body weight ratio in NASH mice; details: mean±SD; for Liver-to-body weight ratio: Vehicle 8.1±1.1, no significant difference; for Mean liver weight: Vehicle 1870±418, no significant difference
Method: The viability, clinical signs and behavior were monitored daily. Body weight was recorded daily before drug administration. […] The animals were sacrificed by exsanguination through direct cardiac puncture under ether anesthesia (Wako Pure Chemical Industries).

[3] = tested on: TIMP-1; assay: Quantitative RT-PCR of liver, TIMP-1 mRNA, NASH mice; details: 13 weeks of age, mean ± SD, n = 8, Vehicle 7.74 ± 4.15, no significant difference
Method: (§1) Total RNA was extracted from liver samples using RNAiso (Takara Bio, Japan) according to the manufacturer's instructions. One μg of RNA was reverse-transcribed using a reaction mixture containing 4.4 mM MgCl2 (Roche, Switzerland), 40 U RNase inhibitor (Toyobo, Japan), 0.5 mM dNTP (Promega, USA), 6.28 μM random hexamer (Promega), 5× first strand buffer (Promega), 10 mM dithiothreitol (Invitrogen, USA) and 200 U MMLV-RT (Invitrogen) in a final volume of 20 μL. The reaction was carried out for 1 hour at 37° C., followed by 5 minutes at 99° C. Real-time PCR was performed using real-time PCR DICE and SYBR premix Taq (Takara Bio). To calculate the relative mRNA expression level, the expression of each gene was normalized to that of reference gene 36B4 (gene symbol: Rplp0). Information of PCR-primer sets and the plate layout was described in Table 1.

[4] = tested on: NASH mice; assay: Sirius red staining, fibrosis area in liver of NASH mice; details: for Sirius red-positive area (fibrosis area): NASH mice, 13 weeks of age, mean ± SD, n = 8, Vehicle 1.02 ± 0.33
Method: C57BL/6J mice (15-day pregnant female) were obtained from Charles River Laboratories Japan (Kanagawa, Japan). All animals used in this study were housed and cared for in accordance with the Japanese Pharmacological Society Guidelines for Animal Use. The animals were maintained in a SPF facility under controlled conditions of temperature (23±2° C.), humidity (45±10%), lighting (12-hour artificial light and dark cycles; light from 8:00 to 20:00) and air exchange. A high pressure (20±4 Pa) was maintained in the experimental room to prevent contamination of the facility. The animals were housed in polycarbonate cages KN-600 (Natsume Seisakusho, Japan) with a maximum of 4 mice per cage. Sterilized PULMASμ (Material Research Center, Japan) was used for bedding and replaced once a week. Sterilized solid HFD was provided ad libitum, being placed in the metal lid on top of the cage. Pure water was provided ad libitum from a water bottle equipped with a rubber stopper and a sipper tube. Water bottles were replaced once a week, cleaned and sterilized in autoclave and reused. Mice were identified by numbers engraved on earrings. Each cage was labeled with a specific identification code.

[5] = tested on: NASH mice; assay: Liver hydroxyproline content in NASH mice; details: μg per mg total protein, mean±SD, Vehicle 0.79±0.19, no significant difference
Method: To quantify liver hydroxyproline content, frozen liver samples (35-45 mg) were processed by an alkaline-acid hydrolysis method as follows: the livers were defatted with 100% acetone, dried in the air, dissolved in 2N NaOH at 65° C., and autoclaved at 121° C. for 20 minutes. The lysed samples (400 μL) were acid-hydrolyzed with 400 μL of 6N HCl at 121° C. for 20 minutes, and neutralized with 400 μL of 4N NaOH containing 10 mg/mL activated carbon. AC buffer (2.2M acetic acid/0.48M citric acid, 400 μL) was added to the samples, followed by centrifugation to collect the supernatant. To construct a standard curve of hydroxyproline, serial dilutions of trans-4-hydroxy-Lproline (Sigma-Aldrich) were prepared starting at 16 μg/mL. The prepared samples and standards (each 400 μL) were mixed with 400 μL chloramine T solution (Wako Pure Chemical Industries, Japan) and incubated for 25 minutes at room temperature. The samples were then mixed with Ehrlich's solution (400 μL) and heated at 65° C. for 20 minutes to develop the color. After samples were cooled on ice and centrifuged to remove precipitates, the optical density of each supernatant was measured at 560 nm. The concentrations of hydroxyproline were calculated from the hydroxyproline standard curve. Protein concentrations of liver samples were determined using a BCA protein assay kit (Thermo Fisher Scientific, USA) and used to normalize the calculated hydroxyproline values. Hydroxyproline levels were expressed as μg per mg total protein.

[6] = tested on: NASH mice; assay: Serum TG in NASH mice; details: mean±SD
Method: (§2) Non-fasting blood glucose was measured in whole blood using Life Check (EIDIA, Japan). For serum biochemistry, blood was collected in polypropylene tubes without anticoagulant and kept at room temperature for 30 minutes, followed by at 4° C. for 1 hour. The blood samples were then centrifuged at 1,000×g for 15 minutes at 4° C. The supernatant was collected and stored at −80° C. until use. Serum ALT and TG levels were measured by FUJI DRI-CHEM 7000 (Fujifilm, Japan).

[7] = tested on: NASH mice; assay: Whole blood glucose in NASH mice; details: mean±SD
Method: as §2

[8] = tested on: α-SMA; assay: Quantitative RT-PCR of liver, α-SMA mRNA, NASH mice; details: 13 weeks of age, mean ± SD
Method: as §1

[9] = high dose 3 mg/kg/day s.c. infusion 9-13 wks
[10] = low dose 1 mg/kg/day s.c. infusion 9-13 wks

With `C[C@H]1[C@H]2N(C(=O)CN(C)N2C(=O)NCc2ccccc2)[C@@H](Cc2ccc(OP(=O)(O)O)cc2)C(=O)N1Cc1cccc2cccnc12` [Compound A, 4-(((6S,9S,9aS)-1-(benzylcarbamoyl)-2,9-dimethyl-4,7-dioxo-8-(quinolin-8-ylmethyl)octahydro-1H-pyrazino[2,1-c][1,2,4]triazin-6-yl)methyl)phenyl dihydrogen phosphate] the “Liver TG content” value [1, 9] was 67.8 ± 24.0 mg/g, the “Liver TG content” value [1, 10] was 64.8 ± 25.6 mg/g and the Liver-to-body weight ratio [2, 9] was 8.5±0.6%. For the same compound, the Mean liver weight [2, 9] was 2024 ± 159 mg, the Liver-to-body weight ratio [2, 10] was 8.0±0.8% and the Mean liver weight [2, 10] was 1803 ± 219 mg. The “TIMP-1 mRNA expression level (relative, normalized to 36B4)” value ([3]; high dose 3 mg/kg/day s.c. infusion 9-13 wks, 3 mg/kg/day) was 6.73±2.23, the “TIMP-1 mRNA expression level (relative, normalized to 36B4)” value ([3]; low dose 1 mg/kg/day s.c. infusion 9-13 wks, 1 mg/kg/day) was 5.35±2.82 and the “Sirius red-positive area (fibrosis area)” value ([4]; high dose 3 mg/kg/day continuous s.c. infusion 9-13 wks, significantly decreased, 3 mg/kg/day) was 0.67±0.21%. The “Sirius red-positive area (fibrosis area)” value ([4]; low dose 1 mg/kg/day continuous s.c. infusion 9-13 wks, no significant difference, 1 mg/kg/day) was 0.82±0.31%, the “Fibrosis (FIG. 1 legend)” value ([4]; NASH rat model as printed in the legend, FIG. 1 shows high-dose 3 mg/kg/day versus Vehicle) was “reduces fibrosis” and the Liver hydroxyproline content [5, 9] was 0.95 ± 0.22 µg/mg. The Liver hydroxyproline content [5, 10] was 0.90 ± 0.26 µg/mg, the “Serum TG” value ([6]; high dose 3 mg/kg/day s.c. infusion 9-13 wks, Vehicle 391±175, increased) was 1145 ± 580 mg/dL and the “Serum TG” value ([6]; low dose 1 mg/kg/day s.c. infusion 9-13 wks, Vehicle 391±175, no significant difference) was 815 ± 754 mg/dL. For the same compound, the “Whole blood glucose (non-fasting)” value ([7]; high dose 3 mg/kg/day s.c. infusion 9-13 wks, Vehicle 605±134, tended to increase) was 791 ± 54 mg/dL, the “Whole blood glucose (non-fasting)” value ([7]; low dose 1 mg/kg/day s.c. infusion 9-13 wks, Vehicle 605±134, no significant difference) was 677 ± 36 mg/dL and the “α-SMA mRNA expression level (relative, normalized to 36B4)” value ([8]; high dose 3 mg/kg/day s.c. infusion 9-13 wks, n = 8, Vehicle 3.19 ± 1.81, no significant difference, 3 mg/kg/day) was 2.23±1.23. The “α-SMA mRNA expression level (relative, normalized to 36B4)” value ([8]; low dose 1 mg/kg/day s.c. infusion 9-13 wks, n = 8, Vehicle 3.19 ± 1.81, tended to be down-regulated, 1 mg/kg/day) was 1.88±0.60.

Reference: US20160263131A1, “TREATMENT OF HEPATIC FIBROSIS USING AN INHIBITOR OF CBP/CATENIN” (priority 2013, published 2016)
